The values that follow come from patent US20220023293A1, “EZH2- FGFR INHIBITION IN CANCER” (Stichting Het Nederlands Kanker Instituut-Antoni van …, priority 2018, published 2022).

In assay [1] the test system is BAP1 deficient mesothelioma cells. Nature of the assay: short term assay, drug response curve (Alamar blue), 384-well. The class given is cell-based, mouse. The settings on record: single agent; BNC versus NC derived early passage cell lines; FIG. 4B, 4C. How it is done: For short term colony formation assay, the mesothelioma cell lines were seeded in 500 cells per well in a 384-well plate. The next day drugs (GSK126, AZD4547, AZD2461, ABT-263) were added in a matrix format at the indicated concentration using HP D300 digital dispenser (HP) and cells were grown in presence of drug(s) or DMSO control for 5 days. Thereafter, 10% v/v Alamar blue was added to the well and incubated at 370 C for 4 hours. The plates were read with Tecan reader. The data were analyzed and plotted for drug response curve.
In general terms: Alamar Blue is a resazurin reagent that responds to reducing activity.

A further assay deals with FGF7, FGF2 and FGFR2. Nature of the assay: gene expression analysis (RNA sequencing) after EZH2 inhibitor treatment. The settings on record: GSK126 treated versus DMSO treated Bap1 deficient cells; log 2 expression; FIG. 4E. The class given is cell-based, mouse. Here is the method: For gene expression analysis, RNA was isolated from tumor tissue with the Qiagen All prep DNA/RNA kit. Quantification and quality assessment for RNA were performed with a Bioanalyzer (RIN >6.5) (Agilent, Santa Clara, Calif., USA).
Sequencing libraries were constructed with a TruSeq mRNA Library Preparation Kit using poly-A-enriched RNA (Illumina, San Diego, Calif., USA). The samples were run on a HiSeq 2500 Illumina sequencer for cluster generation and sequencing.
For RNA sequencing and expression analysis, Illumina TruSeq mRNA libraries were sequenced with 51 base single reads on a HiSeq2000 using V3 chemistry (Illumina Inc., San Diego). The sequence reads were mapped to the mouse genome (mm10), using TopHat (2.0.12). TopHat was run with default. Reads with mapping quality less than 10 and non-primary alignments were discarded. Remaining reads were counted using HTSeq-cout. Statistical analysis of the differential expression of genes was performed using DESeq2. Genes with False Discovery Rate (FDR) for differential expression lower than 0.05 were considered significant. Batch effect within tumor samples from different source was corrected using ComBat with default options through the Bioconductor sva package 3.10.

As to `COc1cc(CCc2cc(NC(=O)c3ccc(N4C[C@@H](C)N[C@@H](C)C4)cc3)n[nH]2)cc(OC)c1` [AZD4547, N-[5-[2-(3,5-dimethoxyphenyl)ethyl]-1H-pyrazol-3-yl]-4-[(3R,5S)-3,5-dimethylpiperazin-1-yl]benzamide], the “drug response of BAP1 deficient versus proficient mesothelioma cells (dose response curve)” value in assay [1] is listed as “hypersensitive”.

For the compound `CC[C@H](C)n1cc(C)c2c(C(=O)NCc3c(C)cc(C)[nH]c3=O)cc(-c3ccc(N4CCNCC4)nc3)cc21` [GSK126, 1-[(2S)-butan-2-yl]-N-[(4,6-dimethyl-2-oxo-1H-pyridin-3-yl)methyl]-3-methyl-6-(6-piperazin-1-ylpyridin-3-yl)indole-4-carboxamide], the “drug response of BAP1 deficient versus proficient mesothelioma cells (dose response curve)” value in assay [1] is given as “hypersensitive”. The “expression of FGF/FGFR pathway genes (FGF7, FGF2, FGFR2)” value in the assay with FGF7, FGF2 and FGFR2 was “upregulation of FGF/FGFR pathway genes”.
